# Test results reported in US4377687A, “Analogs of 1-(2-chloroethyl)-1-nitroso-3-(cycloheyl)-urea substituted by heterocyclic rings or alkyl radicals” (Stiftung Deutsches Krebsforschungszentrum, priority 1978, dated 1983).
# “And” between values parts separate entries of the source, which are not always exact repeats. Identical values can stand only once. Counter-ions that a name gives are not always drawn. Like-named read-outs stand apart in the source and are kept apart here.
# Key:
# [1] = test system: Yoshida sarcoma; assay type: in vivo, rat (male Sprague-Dawley rats); conditions: for effect on survival time / life expectancy (in words): experiments 1-4, MeCCNU 45, morpholino-CNU 28 (exp. 3 and 5), dimethylmorpholine-CNU 45, piperidino-CNU 15, picolyl-3-CNU 25, picolyl-3-CNU.HCl 25 mg/kg
# Protocol: The chemotherapeutic activity of nitrosoureas was compared in antitumor tests using Yoshida sarcoma ascited cells implanted into the wall of the descending colon in Sprague-Dawley rats.
# (§1) Male Sprague-Dawley rats were used in the experiments. Yoshida sarcome in ascites form was maintained in the same strain of rats by serial intraperitoneal injection of 0,5 ml of ascites fluid.
# (§2) 3×10^6 cells were injected into the colon wall in a manner known per se. The chemotherapeutic treatment was carried out on the eighth day after implantation of the tumor cells.
# (§3) Water-insoluble compounds were dissolved in Cremophor EL/ethanol/physiological saline (20:20:60: vol.%). Water-soluble substances were dissolved in physiological saline. Cremophor EL is a surfactant on the basis of polyethoxylated castor oil. All test compounds were administered introperitoneally. The nitrosoureas were applied at approximately equitoxic doses corresponding to about 80% of the acute LD50 values observed in healthy rats of the same strain over a 28-day observation period.
# Each experiment involved an untreated control group and a varying number of treated groups. Individual survival times were counted as days after tumor inoculation. At the time of death a record of whether an animal was tumor-free or not was made. All animals alive 120 days after tumor inoculation were killed. Animals that according to macroscopic examination had no tumor at the end of the experiment were considered as cured. Since in a number of control rats also no tumors occurred after 120 days the differences in cures between controls and treated animals rather than absolute numbers are reported. Differences in survival were evaluated statistically by individual comparisons between treated rats and controls using a nonparametric log-rank test (Kalbfleisch and Prentice, The statistical analysis of failure time data, Wiley, New York, 1979). Numerical evaluation was performed using a computerized system.
# [2] = test system: Yoshida sarcoma; conditions: previous experiments; i.p.; cited from earlier work
# [3] = Mean animal weight / weight gain after tumor transplantation; assay type: in vivo, rat (Sprague-Dawley rats); conditions: CP 70 (exp. 1-3), BCNU 25, MeCCNU 45 (exp. 1), picolyl-3-CNU 25, its HCl 25 (exp. 2), morpholino-CNU 28, piperidino-CNU 15 (exp. 3), dimethylmorpholino-CNU 45 mg/kg (exp. 4); for Mean animal weight on day 50: day 50 after tumor transplantation; for Mean animal weight on day 100: day 100 after tumor transplantation
# Protocol: as §1, §2, §3
# In all treated animals and at all doses tested the mean weight gain was lower than in the controls. Table 3 gives the mean animal weights measured 50 and 100 days after tumor transplantation in experiments 1 to 5.
# [4] = Water solubility
# [5] = Experiment 1, CP 70, BCNU 25, MeCCNU 45 mg/kg
# [6] = Experiment 1, CP 70, BCNU 25, MeCCNU 45 mg/kg, initial animals CP 30, BCNU 30, MeCCNU 29
# [7] = Experiment 1, i.p. day 8, CP 70, BCNU 25, MeCCNU 45 mg/kg
# [8] = Experiment 2, CP 70, picolyl-3-CNU 25, picolyl-3-CNU.HCl 25 mg/kg
# [9] = Experiment 2, CP 70, picolyl-3-CNU 25, picolyl-3-CNU.HCl 25 mg/kg, 30 initial animals each
# [10] = Experiment 2, i.p. day 8, CP 70, picolyl-3-CNU 25, picolyl-3-CNU.HCl 25 mg/kg
# [11] = Experiment 3, CP 70, morpholino-CNU 28, piperidino-CNU 15 mg/kg
# [12] = Experiment 3, CP 70, morpholino-CNU 28, piperidino-CNU 15 mg/kg, 30 initial animals each
# [13] = Experiment 5, CP 70, picolyl-3-CNU.HCl 25, morpholino-CNU 28, piperidino-CNU 15 mg/kg
# [14] = Experiment 5, CP 70, picolyl-3-CNU.HCl 25, morpholino-CNU 28, piperidino-CNU 15 mg/kg, 15 initial animals (picolyl-3-CNU.HCl 14)
# [15] = Experiment 5, CP 70, piperidino-CNU 15 mg/kg
# [16] = Experiment 5, i.p. day 8, CP 70, picolyl-3-CNU.HCl 25, morpholino-CNU 28, piperidino-CNU 15 mg/kg
smiles,measurement,setting,value
"O=P1(N(CCCl)CCCl)NCCCO1 (stereo not drawn) [CP, 2-bis-(β-chloroethyl)-amino-oxo-2-oxa-2-λ^5-phospha-3-aza-cyclohexane]",D1-120 = difference (%) between tf1-120 of treated and untreated animals,[1]; [5],38%
same,D120 = difference (%) between tf120 of treated and untreated animals,[1]; [5],25%
same,tf1-120 (%) (tf120 + animals dying of toxicity),[1]; [5],63%
same,tf120 (%) (animals surviving day 120 without tumor),[1]; [5],50%
same,"tf1-120, No. (tf120 + animals dying of toxicity)",[1]; [6],21
same,"tf120, No. (animals surviving day 120 without tumor)",[1]; [6],15
same,"% M (median survival time, untreated control = 100)",[1]; [7],> 260%
same,M = median survival time,[1]; [7],> 120 days
same,"% M (median survival time, untreated control = 100)",[1]; [8],> 545%
same,D1-120 = difference (%) between tf1-120 of treated and untreated animals,[1]; [8],58%
same,D120 = difference (%) between tf120 of treated and untreated animals,[1]; [8],35%
same,tf1-120 (%) (tf120 + animals dying of toxicity),[1]; [8],80%
same,tf120 (%) (animals surviving day 120 without tumor),[1]; [8],57%
same,"tf1-120, No. (tf120 + animals dying of toxicity)",[1]; [9],24
same,"tf120, No. (animals surviving day 120 without tumor)",[1]; [9],17
same,M = median survival time,[1]; [10],> 120 days
same,"% M (median survival time, untreated control = 100)",[1]; [11],> 686%
same,D1-120 = difference (%) between tf1-120 of treated and untreated animals,[1]; [11],48%
same,D120 = difference (%) between tf120 of treated and untreated animals,[1]; [11],38%
same,tf1-120 (%) (tf120 + animals dying of toxicity),[1]; [11],77%
same,tf120 (%) (animals surviving day 120 without tumor),[1]; [11],67%
same,"tf1-120, No. (tf120 + animals dying of toxicity)",[1]; [12],23
same,"tf120, No. (animals surviving day 120 without tumor)",[1]; [12],20
same,M = median survival time,"[1]; Experiment 3, i.p. day 8, CP 70, morpholino-CNU 28, piperidino-CNU 15 mg/kg",> 120 days
same,"% M (median survival time, untreated control = 100)",[1]; [13],400%
same,D1-120 = difference (%) between tf1-120 of treated and untreated animals,[1]; [13],7%
same,D120 = difference (%) between tf120 of treated and untreated animals,[1]; [13],7%
same,"tf1-120, No. (tf120 + animals dying of toxicity)",[1]; [14],1
same,"tf120, No. (animals surviving day 120 without tumor)",[1]; [14],1
same,"tf120, No. (animals surviving day 120 without tumor)","[1]; Experiment 5, CP 70, picolyl-3-CNU.HCl 25, morpholino-CNU 28, piperidino-CNU 15 mg/kg, 15 initial animals (picolyl-3-CNU.HCl 14), listed as cyclophosphamide",1/15
same,tf1-120 (%) (tf120 + animals dying of toxicity),[1]; [15],7%
same,tf120 (%) (animals surviving day 120 without tumor),[1]; [15],7%
same,M = median survival time,[1]; [16],40 days
same,rate of tumor-free animals treated with cyclophosphamide in the other experiments,"[1]; after 120 days, experiments other than experiment 5, listed as cyclophosphamide",50% and 57% and 67%
same,p for improvement of survival time / life expectancy,"[1]; compared with controls, CP (exp. 1-3), dimethylmorpholine-CNU 45 mg/kg","< 0,05"
same,effect on survival time / life expectancy (in words),[1],improved significantly
same,chemotherapeutic activity against Yoshida sarcoma in the colon wall (in words),[1]; i.p.,most active compound
same,"activity against Yoshida sarcoma, shown previously (in words)",[2],responds favorably
same,Mean animal weight on day 50,[3],300 to 330 g
same,Mean animal weight on day 100,[3],300 to 370 g
"O=NN(CCCl)C(=O)NCc1cccnc1 [Picolyl-3-CNU, 1-(2-chloroethyl)-1-nitroso-3-(methylene-3-pyridyl)-urea]","% M (median survival time, untreated control = 100)",[1]; [8],130%
same,D1-120 = difference (%) between tf1-120 of treated and untreated animals,[1]; [8],1%
same,D120 = difference (%) between tf120 of treated and untreated animals,[1]; [8],-2%
same,tf1-120 (%) (tf120 + animals dying of toxicity),[1]; [8],23%
same,tf120 (%) (animals surviving day 120 without tumor),[1]; [8],20%
same,"tf1-120, No. (tf120 + animals dying of toxicity)",[1]; [9],7
same,"tf120, No. (animals surviving day 120 without tumor)",[1]; [9],6
same,M = median survival time,[1]; [10],28 days
same,water solubility (in words),[4],water-insoluble
same,Mean animal weight on day 50,[3],250 g
same,Mean animal weight on day 100,[3],250 g
"O=NN(CCCl)C(=O)NCc1cccnc1 [Picolyl-3-CNU.HCl, [1-(2-chloroethyl)-1-nitroso-3-(methylene-3-pyridilium)-ureido]-chloride]",increase in tumor-free animals (cures) above controls,"[1]; 120 days, CP (exp. 1-3), BCNU, MeCCNU 45, dimethylmorpholine-CNU 45, piperidino-CNU 15, picolyl-3-CNU.HCl 25 mg/kg",15%
same,"% M (median survival time, untreated control = 100)",[1]; [8],125%
same,D1-120 = difference (%) between tf1-120 of treated and untreated animals,[1]; [8],18%
same,D120 = difference (%) between tf120 of treated and untreated animals,[1]; [8],15%
same,tf1-120 (%) (tf120 + animals dying of toxicity),[1]; [8],40%
same,tf120 (%) (animals surviving day 120 without tumor),[1]; [8],37%
same,"tf1-120, No. (tf120 + animals dying of toxicity)",[1]; [9],12
same,"tf120, No. (animals surviving day 120 without tumor)",[1]; [9],11
same,M = median survival time,[1]; [10],27 days
same,"% M (median survival time, untreated control = 100)",[1]; [13],150%
same,D1-120 = difference (%) between tf1-120 of treated and untreated animals,[1]; [13],0%
same,D120 = difference (%) between tf120 of treated and untreated animals,[1]; [13],0%
same,"tf1-120, No. (tf120 + animals dying of toxicity)",[1]; [14],0
same,"tf120, No. (animals surviving day 120 without tumor)",[1]; [14],0
same,M = median survival time,[1]; [16],15 days
same,effect on survival time / life expectancy (in words),[1],without resulting in a significant increase in survival
same,Mean animal weight on day 50,[3],250 g
same,Mean animal weight on day 100,[3],260 g
